Read-outs that look alike come from different tables or passages of the source.
Columns and labels:
intracellular MRSA = type: cell-based, Staphylococcus aureus; details: for %GFP+ rep 1 / z-scoreMRSA+ rep 1: replicate 1; for %GFP+ rep 2 / z-scoreMRSA+ rep 2: replicate 2; for %GFP+ rep 3 / z-scoreMRSA+ rep 3: replicate 3; for z-scoreMRSA+ mean: mean of 3 replicates; as to %GFP+ rep 1: test concentration or dose not given here; as to %GFP+ rep 2: test concentration or dose not given here; as to %GFP+ rep 3: test concentration or dose not given here; as to effect: test concentration or dose not given here; as to z-scoreMRSA+ mean: test concentration or dose not given here; as to z-scoreMRSA+ rep 1: test concentration or dose not given here; as to z-scoreMRSA+ rep 2: test concentration or dose not given here; as to z-scoreMRSA+ rep 3: test concentration or dose not given here
Outline: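 Values are z-scores: GFP-positive HeLa percentage and event count per well against plate statistics, minus the mean DMSO z-score. Wells deviating two-fold from controls were left out of plate means. Infection was at a mean MOI of 6.8, with an overnight compound exposure.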

HeLa cells = test: Compound screen by flow cytometry: HeLa cell count as surrogate readout of cell viability (z-scoreHeLa); type: cell-based, human; also: test concentration or dose not given here
Outline: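 The viability surrogate was the count of fixed HeLa cells by flow cytometry, converted to z-scores against DMSO controls with values deviating two-fold excluded. Before counting, cells had been infected with MRSA for 1 h and cleared of extracellular bacteria with gentamicin. They were then exposed overnight to kinase inhibitors in triplicate.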

[1] = PKIS compound screen raw data, MRSA-infected HeLa cells
[2] = PKIS compound screen, MRSA-infected HeLa cells
[3] = PKIS compound screen, Yes/No call (effect without cell death)
[4] = PKIS compound screen, Yes/No call on z-scoreMRSA+
[5] = PKIS compound screen raw data, HeLa cell count, replicate 1
[6] = PKIS compound screen raw data, HeLa cell count, replicate 2
[7] = PKIS compound screen raw data, HeLa cell count, replicate 3
[8] = PKIS compound screen, HeLa cell count, mean of 3 replicates
[9] = PKIS compound screen, HeLa cell count, replicate 1
[10] = PKIS compound screen, HeLa cell count, replicate 2
[11] = PKIS compound screen, HeLa cell count, replicate 3
[12] = PKIS compound screen, Yes/No call on z-scoreHeLa
[13] = PKIS compound screen, Yes/No call
[14] = PKIS compounds raw data, MRSA-infected HeLa cells
[15] = PKIS compound screen, mean of 3 replicates
[16] = PKIS compound screen, replicate 1
[17] = PKIS compound screen, replicate 2
[18] = PKIS compound screen, replicate 3
[19] = PKIS compounds raw data, replicate 1, HeLa cell count
[20] = PKIS compounds raw data, replicate 2, HeLa cell count
[21] = PKIS compounds raw data, replicate 3, HeLa cell count
[22] = compound screen, MRSA-infected HeLa cells

SMILES | %GFP+ rep 1 (intracellular MRSA; [1]) | %GFP+ rep 2 (intracellular MRSA; [1]) | %GFP+ rep 3 (intracellular MRSA; [1]) | z-scoreMRSA+ mean (intracellular MRSA; [2]) | z-scoreMRSA+ rep 1 (intracellular MRSA; [2]) | z-scoreMRSA+ rep 2 (intracellular MRSA; [2]) | z-scoreMRSA+ rep 3 (intracellular MRSA; [2]) | hit (intracellular MRSA; [3]) | effect (intracellular MRSA; [4]) | cell count rep 1 (HeLa cells; [5]) | cell count rep 2 (HeLa cells; [6]) | cell count rep 3 (HeLa cells; [7]) | z-scoreHeLa mean (HeLa cells; [8]) | z-scoreHeLa rep 1 (HeLa cells; [9]) | z-scoreHeLa rep 2 (HeLa cells; [10]) | z-scoreHeLa rep 3 (HeLa cells; [11]) | cell death (HeLa cells; [12]) | other results
Cc1ccc(O)cc1Nc1ccnc2cc(-c3ccc(CN4CCCCC4)o3)ccc12 [GW557777X] | 13.1% | 14.2% | 14.8% | -1.44 | -1.51 | -1.30 | -1.52 | No | No | 30186 | 37597 | 49690 | 1.17 | 1.53 | 0.52 | 1.46 | No | –
Cc1ccc(O)cc1Nc1ccnc2ccc(S(C)(=O)=O)cc12 [GW559768X] | 8.1% | 10.1% | 9.8% | -2.90 | -3.11 | -2.53 | -3.05 | Yes | Yes | – | – | – | – | – | – | – | – | cell death (HeLa cells): No; cell count rep 1 (HeLa cells; human): 30393; cell count rep 2 (HeLa cells; human): 35205; cell count rep 3 (HeLa cells; human): 44674; z-scoreHeLa mean (HeLa cells; human): 0.77; z-scoreHeLa rep 1 (HeLa cells; human): 1.56; z-scoreHeLa rep 2 (HeLa cells; human): 0.08; z-scoreHeLa rep 3 (HeLa cells; human): 0.66
Fc1cc(Cl)ccc1Nc1ccnc2cc(-c3ccc(CN4CCSCC4)o3)ccc12 [GW560106X] | 16.0% | 19.0% | 19.0% | -0.23 | -0.59 | 0.14 | -0.24 | No | No | 31348 | 29129 | 34674 | -0.095 | 1.70 | -1.06 | -0.93 | No | –
Fc1cc(Cl)ccc1Nc1ccnc2cc(-c3ccc(CN4CCOCC4)o3)ccc12 [GW560109X] | 14.2% | 18.0% | 17.4% | -0.89 | -1.22 | -0.38 | -1.05 | No | No | 37673 | 25490 | 23726 | 0.75 | 1.27 | 0.037 | 0.94 | No | effect (intracellular MRSA; [13]): No; z-scoreMRSA+ mean (intracellular MRSA; PKIS compound screen): 0.05; z-scoreMRSA+ rep 1 (intracellular MRSA; PKIS compound screen): 0.36; z-scoreMRSA+ rep 2 (intracellular MRSA; PKIS compound screen): -0.28; z-scoreMRSA+ rep 3 (intracellular MRSA; PKIS compound screen): 0.06; %GFP+ rep 1 (intracellular MRSA; [14]): 28.9%; %GFP+ rep 2 (intracellular MRSA; [14]): 24.6%; %GFP+ rep 3 (intracellular MRSA; [14]): 27.6%; cell death (HeLa cells; [13]): No; z-scoreHeLa mean (HeLa cells; [15]): 0.33; z-scoreHeLa rep 1 (HeLa cells; [16]): -0.12; z-scoreHeLa rep 2 (HeLa cells; [17]): 0.0321; z-scoreHeLa rep 3 (HeLa cells; [18]): 1.09; cell count rep 1 (HeLa cells; [19]): 5844; cell count rep 2 (HeLa cells; [20]): 6056; cell count rep 3 (HeLa cells; [21]): 7316
Fc1cc(Cl)ccc1Nc1ccnc2cc(-c3ccc(CN4CCCCC4)o3)ccc12 [GW560116X] | 26.5% | 26.3% | 25.6% | – | – | – | – | – | – | 2203 | 2204 | 1264 | – | – | – | – | – | effect (intracellular MRSA; Yes/No call from z-scoreMRSA+): No; hit (intracellular MRSA; Yes/No: effect without cell death): No; z-scoreMRSA+ mean (intracellular MRSA; [22]): 0.73; z-scoreMRSA+ rep 1 (intracellular MRSA; [22]): 0.29; z-scoreMRSA+ rep 2 (intracellular MRSA; [22]): 0.89; z-scoreMRSA+ rep 3 (intracellular MRSA; [22]): 1.02; cell death (HeLa cells; Yes/No call from z-scoreHeLa): No; z-scoreHeLa mean (HeLa cells; compound screen, HeLa cell count, mean of 3 replicates): -1.89; z-scoreHeLa rep 1 (HeLa cells; compound screen, HeLa cell count, replicate 1): -1.55; z-scoreHeLa rep 2 (HeLa cells; compound screen, HeLa cell count, replicate 2): -1.61; z-scoreHeLa rep 3 (HeLa cells; compound screen, HeLa cell count, replicate 3): -2.51
c1ccc(Oc2ccc(Nc3ccnc4cc(-c5ccc(CN6CCNCC6)o5)ccc34)cc2)nc1 [GW567142A] | 18.2% | 19.4% | 17.4% | -0.40 | -0.15 | -0.00228 | -1.05 | No | No | 37910 | 29813 | 27656 | 1.26 | 1.31 | 0.78 | 1.70 | No | –
c1ccc(Oc2ccc(Nc3ccnc4cc(-c5ccc(CNCCN6CCOCC6)o5)ccc34)cc2)nc1 [GW567145X] | 20.5% | 21.2% | 22.8% | 0.46 | 0.46 | 0.49 | 0.43 | No | No | 29321 | 19879 | 15455 | -0.58 | -0.15 | -0.93 | -0.68 | No | effect (intracellular MRSA; [13]): No; z-scoreMRSA+ mean (intracellular MRSA; PKIS compound screen): -0.39; z-scoreMRSA+ rep 1 (intracellular MRSA; PKIS compound screen): -0.38; z-scoreMRSA+ rep 2 (intracellular MRSA; PKIS compound screen): -0.37; z-scoreMRSA+ rep 3 (intracellular MRSA; PKIS compound screen): -0.40; %GFP+ rep 1 (intracellular MRSA; [14]): 25.1%; %GFP+ rep 2 (intracellular MRSA; [14]): 24.1%; %GFP+ rep 3 (intracellular MRSA; [14]): 25.1%; cell death (HeLa cells; [13]): No; z-scoreHeLa mean (HeLa cells; [15]): 0.19; z-scoreHeLa rep 1 (HeLa cells; [16]): 0.019; z-scoreHeLa rep 2 (HeLa cells; [17]): 0.89; z-scoreHeLa rep 3 (HeLa cells; [18]): -0.32; cell count rep 1 (HeLa cells; [19]): 6078; cell count rep 2 (HeLa cells; [20]): 7342; cell count rep 3 (HeLa cells; [21]): 5085

Reference: paper PMC10999543, “Identification of kinase modulators as host-directed therapeutics against intracellular methicillin-resistant Staphylococcus aureus” (Frontiers in Cellular and Infection Microbiology, 2024)
